# Biological target: Melanocortin receptor 5 (Homo sapiens, UniProt P33032)
# Test: Displacement of [125I]-NDP-alpha-MSH from human MC5R LBD expressed in HEK293 cell membranes incubated for 16 to 23 hrs in dark by scintillation proximity assay
# Sequence of Melanocortin receptor 5 (P33032 whole entry, the tested form may be a part): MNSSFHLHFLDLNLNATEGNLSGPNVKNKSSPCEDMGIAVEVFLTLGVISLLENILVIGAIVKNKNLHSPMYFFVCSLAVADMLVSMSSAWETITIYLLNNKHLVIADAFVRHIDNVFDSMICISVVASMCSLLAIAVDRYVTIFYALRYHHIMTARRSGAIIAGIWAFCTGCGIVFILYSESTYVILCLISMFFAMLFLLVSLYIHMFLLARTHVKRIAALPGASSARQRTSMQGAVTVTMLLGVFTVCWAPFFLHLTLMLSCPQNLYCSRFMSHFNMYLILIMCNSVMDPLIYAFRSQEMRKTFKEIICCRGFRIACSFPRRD
structure (smiles),measurement,value
CC[C@H](C)[C@@H]1NC(=O)[C@@H]2CCCN2C(=O)[C@@H]2CCCN2C(=O)[C@H]([C@@H](C)CC)NC(=O)[C@H](CO)NC(=O)[C@H](C)NC(=O)[C@H]([C@@H](C)O)NC(=O)[C@@H]2CSSC[C@H](NC1=O)C(=O)N[C@@H](Cc1c[nH]cn1)C(=O)N[C@H](Cc1ccccc1)C(=O)N(C)[C@@H](CCCNC(=N)N)C(=O)N(C)[C@@H](Cc1c[nH]c3ccccc13)C(=O)N[C@@H](CCCNC(=N)N)C(=O)N2,IC50,813 nM

# Source: BindingDB's records for doi:10.1021/acs.jmedchem.8b00170 (The University of Queensland, 2018)
